Values after ≈ are worked out from the molar mass of the structure shown. Active and inactive are the calls of the source. No cut-off for these calls is given here.
Experiments:
Bacteroides [1] = test: Antimicrobial activity against Bacteroides group obtained from patient with Clostridium difficile infection assessed as bacterial count per gram of wet stool at 200 mg/kg, po BID measured on day 10 by the two-tailed Wilcoxon matched-pair, signed-rank test; format: functional, Feces
Bacteroides [2] = test: Antimicrobial activity against Bacteroides group obtained from patient with Clostridium difficile infection assessed as bacterial count per gram of wet stool at 50 mg/kg, po BID measured on day 10 by the two-tailed Wilcoxon matched-pair, signed-rank test; format: functional, Feces
Clostridioides difficile [3] = test: Antimicrobial activity against Clostridium difficile obtained from patient with Clostridium difficile infection assessed as bacterial count per gram of wet stool at 200 mg/kg, po BID measured on day 4 by the two-tailed Wilcoxon matched-pair, signed-rank test; format: functional, organism-based; parameters: dose 200 mg/kg; settings: Feces
Bacteroides sp. [4] = test: Antimicrobial activity against […] gram-negative Bacteroides sp.; format: functional
Clostridioides difficile [5] = test: Antimicrobial activity against Clostridium difficile obtained from patient with Clostridium difficile infection assessed as bacterial count per gram of wet stool at 50 mg/kg, po BID measured on day 4 by the two-tailed Wilcoxon matched-pair, signed-rank test; format: functional, organism-based; parameters: dose 50 mg/kg; settings: Feces
Clostridioides difficile [6] = test: Antimicrobial activity against Clostridium difficile obtained from patient with Clostridium difficile infection assessed as bacterial count per gram of wet stool at 100 mg/kg, po BID measured on day 4 by the two-tailed Wilcoxon matched-pair, signed-rank test; format: functional, organism-based; parameters: dose 100 mg/kg; settings: Feces
Clostridioides difficile [7] = test: Antimicrobial activity against Clostridium difficile obtained from patient with Clostridium difficile infection assessed as bacterial count per gram of wet stool at 50 mg/kg, po BID measured on day 10 by the two-tailed Wilcoxon matched-pair, signed-rank test; format: functional, organism-based; parameters: dose 50 mg/kg; settings: Feces
Clostridioides difficile [8] = test: Antimicrobial activity against Clostridium difficile obtained from patient with Clostridium difficile infection assessed as bacterial count per gram of wet stool at 100 mg/kg, po BID measured on day 10 by the two-tailed Wilcoxon matched-pair, signed-rank test; format: functional, organism-based; parameters: dose 100 mg/kg; settings: Feces
Clostridioides difficile [9] = test: Antimicrobial activity against Clostridium difficile obtained from patient with Clostridium difficile infection assessed as bacterial count per gram of wet stool at 200 mg/kg, po BID measured on day 8 by the two-tailed Wilcoxon matched-pair, signed-rank test; format: functional, organism-based; parameters: dose 200 mg/kg; settings: Feces
Bacteroides sp. [10] = test: Antimicrobial activity against […] Bacteroides sp.; format: functional
Clostridioides difficile [11] = test: Antimicrobial activity against Clostridium difficile obtained from patient with Clostridium difficile infection assessed as bacterial count per gram of wet stool at 200 mg/kg, po BID measured on day 10 by the two-tailed Wilcoxon matched-pair, signed-rank test; format: functional, organism-based; parameters: dose 200 mg/kg; settings: Feces
Bacteroides [12] = test: Antimicrobial activity against Bacteroides group obtained from patient with Clostridium difficile infection assessed as bacterial count per gram of wet stool at 100 mg/kg, po BID measured on day 10 by the two-tailed Wilcoxon matched-pair, signed-rank test; format: functional, Feces
Clostridioides difficile [13] = test: Antimicrobial activity against Clostridium difficile obtained from patient with Clostridium difficile infection assessed as bacterial count per gram of wet stool at 200 mg/kg, po BID measured at 21 to 28 days by the two-tailed Wilcoxon matched-pair, signed-rank test; format: functional, Feces
Clostridioides difficile [14] = test: Antimicrobial activity against Clostridium difficile; format: functional
Clostridioides difficile [15] = test: Antimicrobial activity against Clostridium difficile obtained from patient with Clostridium difficile infection assessed as reduction in bacterial cytotoxin B in patients at 100 mg/kg, po BID measured at 21 to 28 days by the two-tailed Wilcoxon matched-pair, signed-rank test; format: functional, organism-based; parameters: dose 100 mg/kg
Clostridioides difficile [16] = test: Antimicrobial activity against Clostridium difficile obtained from patient with Clostridium difficile infection assessed as bacterial count per gram of wet stool at 100 mg/kg, po BID measured at 21 to 28 days by the two-tailed Wilcoxon matched-pair, signed-rank test; format: functional, Feces
Clostridioides difficile [17] = test: Antimicrobial activity against Clostridium difficile obtained from patient with Clostridium difficile infection assessed as bacterial count per gram of wet stool at 50 mg/kg, po BID measured at 21 to 28 days by the two-tailed Wilcoxon matched-pair, signed-rank test; format: functional, Feces
Clostridioides difficile [18] = test: Antimicrobial activity against Clostridium difficile obtained from patient with Clostridium difficile infection assessed as reduction in bacterial cytotoxin B in patients at 200 mg/kg, po BID measured at 21 to 28 days by the two-tailed Wilcoxon matched-pair, signed-rank test; format: functional, organism-based; parameters: dose 200 mg/kg
Clostridioides difficile [19] = test: Antimicrobial activity against Clostridium difficile obtained from patient with Clostridium difficile infection assessed as bacterial count per gram of wet stool at 125 mg/kg, po BID measured at 21 to 28 days by the two-tailed Wilcoxon matched-pair, signed-rank test; format: functional, Feces
Clostridioides difficile [20] = test: Antimicrobial activity against Clostridium difficile obtained from patient with Clostridium difficile infection assessed as bacterial count per gram of wet stool at 125 mg/kg, po BID measured on day 4 by the two-tailed Wilcoxon matched-pair, signed-rank test; format: functional, organism-based; parameters: dose 125 mg/kg; settings: Feces
Bacteroides [21] = test: Antimicrobial activity against Bacteroides group obtained from patient with Clostridium difficile infection assessed as bacterial count per gram of wet stool at 125 mg/kg, po administered QID measured on day 10 by the two-tailed Wilcoxon matched-pair, signed-rank test; format: functional, Feces
Clostridioides difficile [22] = test: Antimicrobial activity against Clostridium difficile obtained from patient with Clostridium difficile infection assessed as bacterial count per gram of wet stool at 125 mg/kg, po BID measured on day 10 by the two-tailed Wilcoxon matched-pair, signed-rank test; format: functional, organism-based; parameters: dose 125 mg/kg; settings: Feces

CCc1c(Cl)c(O)c(Cl)c(O)c1C(=O)O[C@H]1[C@H](O)[C@H](OC)[C@H](OC/C2=C\C=C\C[C@H](O)/C(C)=C/[C@H](CC)[C@@H](O[C@@H]3OC(C)(C)[C@@H](OC(=O)C(C)C)[C@H](O)[C@@H]3O)/C(C)=C/C(C)=C/C[C@@H]([C@@H](C)O)OC2=O)O[C@@H]1C [FIDAXOMICIN]
log10cfu (Bacteroides [1]): 7.3 | log10cfu (Bacteroides [2]): 8.2 | Activity (Clostridioides difficile [3]): Active | MIC90 (Bacteroides sp. [4]): > 1020 µg/mL | Activity (Clostridioides difficile [5]): Active | Activity (Clostridioides difficile [6]): Active | Activity (Clostridioides difficile [7]): Active | Activity (Clostridioides difficile [8]): Active | Activity (Clostridioides difficile [9]): Active | MIC90 (Bacteroides sp. [10]): > 1020 µg/mL | Activity (Clostridioides difficile [11]): Active | log10cfu (Bacteroides [12]): 6.3 | log10cfu (Clostridioides difficile [13]): 3.1 | MIC90 (Clostridioides difficile [14]): 0.12 µg/mL (≈ 0.113 µM) | Activity (Clostridioides difficile [15]): Active | log10cfu (Clostridioides difficile [16]): 3.6 | log10cfu (Clostridioides difficile [17]): 3.9 | Activity (Clostridioides difficile [18]): Active

CN[C@H](CC(C)C)C(=O)N[C@H]1C(=O)N[C@@H](CC(N)=O)C(=O)N[C@H]2C(=O)N[C@H]3C(=O)N[C@H](C(=O)N[C@H](C(=O)O)c4cc(O)cc(O)c4-c4cc3ccc4O)[C@H](O)c3ccc(c(Cl)c3)Oc3cc2cc(c3O[C@@H]2O[C@H](CO)[C@@H](O)[C@H](O)[C@H]2O[C@H]2C[C@](C)(N)[C@H](O)[C@H](C)O2)Oc2ccc(cc2Cl)[C@H]1O [VANCOMYCIN]
log10cfu (Clostridioides difficile [19]): 5.4 | Activity (Clostridioides difficile [20]): Active | log10cfu (Bacteroides [21]): 3.6 | Activity (Clostridioides difficile [22]): Active

— ChEMBL document CHEMBL1629573, “OPT-80 eliminates Clostridium difficile and is sparing of bacteroides species during treatment of C. difficile infection” (2009)
